From patent publication US11325921B2, “Optically active crosslinked cyclic secondary amine derivative” (Sumitomo Dainippon Pharma Co., Ltd., priority 2018, dated 2022)

Assays:
RS4; 11 cells = assay: Test 2: inhibition of cell proliferation, RS4; 11; format: cell-based; details: for IC50: Homo sapiens, 168 h, 11 cells, cultured 7 days, PrestoBlue; for cell proliferation inhibition activity (in words, good) / cell proliferation inhibitory activity (in words, potent): 11 and MOLM-13 cells, summary of the table; for cell proliferation inhibitory activity (in words, potent): 'especially'
Procedure: (§1) RS4; 11 cells were obtained from American Type Culture Collection (ATCC). The cells were cultured at 37° C. in the presence of 5% CO2 in RPMI 1640 medium containing 10% fetal bovine serum and 1% penicillin/streptomycin. MOLM-13 cells were separately obtained from DSMZ. The cells were cultured at 37° C. in the presence of 5% CO2 in RPMI 1640 medium containing 20% fetal bovine serum and 1% penicillin/streptomycin.
(§2) The cells were plated to a 96-well plate in 2000 cells/well, each test compound was added thereto to adjust the final concentration of DMSO to 0.1% of DMSO, and the cells were cultured for 7 days. After the cultivation, the cell viability was calculated with PrestoBlue™ Cell Viability Reagent (Invitrogen, A13261). The IC50 value was calculated from a survival curve, that corresponds to the concentration of the test compound at which the cell proliferation inhibition rate is 50%.

MOLM-13 cells = assay: Test 2: inhibition of cell proliferation, MOLM-13; format: cell-based; details: Homo sapiens, 168 h, cultured 7 days, PrestoBlue
Procedure: as §1, §2

[1] = target: Menin-MLL binding (His-Menin1-615 / MLL1-172-FLAG) (Homo sapiens (Human), UniProt O00255); assay: Test 1: inhibition of the Menin-MLL binding (HTRF); details: for Menin-MLL binding inhibition activity (in words): summary of the table
Procedure: Menin1-615 wherein 6× His tag and HA tag are inserted in the N-terminus, and myc tag is inserted in the C-terminus (hereinafter, referred to as His-Menin1-615), was diluted with an assay buffer (25 mmol/L HEPES, 150 mmol/L NaCl, 1 mmol/L dithiothreitol, 0.5% (w/v) Tween 80, 0.3% (w/v) BSA, 0.3% (w/v) skim milk) to adjust the final concentration Lo 30 nmol/L. The test compounds were also diluted with the assay buffer to adjust each concentration of the test compounds to 0.005 to 5 μmol/L. The prepared His-Menin1-615 and test compounds were added to a light-shielding 384-well low-volume plate (Corning, #4514) in 2 μL/well and 6 μL/well, respectively, and the plate was covered with a lid for light-shielding (Corning, r-3935), and incubated at room temperature for 3 hours. After the incubation, MLL1-172 wherein FLAG tag is inserted in the C-terminus (MLL1-172-FLAG), was separately diluted with the assay buffer to adjust the final concentration to 50 nmol/L. The prepared MLL1-172-FLAG was added to the above plate in 2 μL/well, and the plate was covered with a lid for light-shielding and incubated at room temperature for an hour.
Then, anti-6HIS-d2 antibody (cisbio, 61HISDLA) and anti-FLAGM2-K antibody (cisbio, 61FG2KLA) were diluted with an antibody dilution buffer (50 mmol/L Tris, 150 mmol/L NaCl, 800 mmol/L KF, pH 7.4) to adjust the final concentration to 1.4 μg/mL to prepare an antibody mixture. The prepared antibody mixture was added to the above plate in 10 μL/well, and the plate was covered with a lid and incubated at 4° C. for 17 to 24 hours. After the incubation, the signal was detected with RUBYstar (BMG LABTECH). The binding inhibition rate (%) at each concentration of the test compounds was calculated from the following formula, and the IC50 value was obtained, that corresponds to the concentration of the test compound at which the binding inhibition rate is 50%.

[2] = system: MEIS1 mRNA in MV4; 11 cells; assay: Test 3: inhibition of mRNA transcription, MEIS1; format: cell-based; details: for mrna remaining at 1 µM: Homo sapiens, MV4, 20 to 24 hours, fitted with GAPDH, read-out: mRNA at 1 μM (% control) MEIS1; for mRNA transcription inhibition activity (in words): MEIS1 and HOXA9, MV4, 1 μM, summary of the table
Procedure: (§3) MV4; 11 cells were obtained from American Type Culture Collection (ATCC). The cells were cultured at 37° C. in the presence of 5% CO2 in RPMI 1640 medium containing 10% fetal bovine serum and 1% penicillin/streptomycin. To the MV4; 11 cells was added each test compound to adjust the final concentration to 1 μmol/L, and the cells were cultured at 37° C. in the presence of 5% CO2 for 20 to 24 hours. After the incubation, the total RNA was extracted from the cells with RNeasy™ Mini Kit (QIAGEN, 74106), and cDNA was synthesized with Superscript™ VILO™ cDNA Synthesis Kit (Invitrogen, #11754250). By using TaqMan™ Gene Expression Master Mix (Applied Biosystems, 4369016) and TaqMan™ probe (Applied Biosystems), the expression level of mRNA was quantified from the obtained cDNA with 7900HT (Applied biosystems). The mRNA expression level of each obtained gene was fitted with the expression level of mRNA of GAPDH.

[3] = system: HOXA9 mRNA in MV4; 11 cells; assay: Test 3: inhibition of mRNA transcription, HOXA9; format: cell-based; details: Homo sapiens, 20 to 24 hours, fitted with GAPDH, read-out: mRNA at 1 μM (% control) HOXA9
Procedure: as §3

Menin-MLL binding (His-Menin1-615 / MLL1-172-FLAG), sequence (O00255 other isoform, or with tags, fused parts or gaps): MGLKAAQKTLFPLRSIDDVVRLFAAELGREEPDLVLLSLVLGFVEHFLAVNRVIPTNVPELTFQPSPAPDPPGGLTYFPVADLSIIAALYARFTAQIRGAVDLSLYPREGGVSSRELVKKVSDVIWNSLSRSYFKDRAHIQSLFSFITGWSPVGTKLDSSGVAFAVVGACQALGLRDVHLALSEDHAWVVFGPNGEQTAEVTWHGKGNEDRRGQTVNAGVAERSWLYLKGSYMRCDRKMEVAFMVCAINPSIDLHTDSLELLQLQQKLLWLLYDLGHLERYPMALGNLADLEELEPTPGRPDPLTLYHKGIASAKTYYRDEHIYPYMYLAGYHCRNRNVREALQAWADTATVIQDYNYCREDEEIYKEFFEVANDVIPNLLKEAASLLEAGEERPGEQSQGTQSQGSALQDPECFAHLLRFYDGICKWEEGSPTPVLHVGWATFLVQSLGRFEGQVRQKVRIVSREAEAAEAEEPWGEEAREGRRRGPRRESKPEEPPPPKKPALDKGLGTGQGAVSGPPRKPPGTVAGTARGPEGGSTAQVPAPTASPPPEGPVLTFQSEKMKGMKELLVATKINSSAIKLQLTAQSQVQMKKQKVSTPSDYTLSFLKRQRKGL

| SMILES | IC50 (RS4; 11 cells) | IC50 (MOLM-13 cells) | IC50 [1] | Menin-MLL binding inhibition activity (in words) [1] | mrna remaining at 1 µM [2] | mrna remaining at 1 µM [3] | cell proliferation inhibition activity (in words, good) (RS4; 11 cells) | cell proliferation inhibitory activity (in words, potent) (RS4; 11 cells) | mRNA transcription inhibition activity (in words) [2] |
| --- | --- | --- | --- | --- | --- | --- | --- | --- | --- |
| O=C([C@H]1N[C@H]2CC[C@@H]1C(F)(F)C2)N1CC2(C1)CN(c1c(C(F)(F)F)cnc3sc(CC(F)(F)F)cc13)C2 [Example 4, [(1S,3S,4S)-5,5-difluoro-2-azabicyclo[2.2.2]octan-3-yl]{6-[2-(2,2,2-trifluoroethyl)-5-(trifluoromethyl)thieno[2,3-b]pyridin-4-yl]-2,6-diazaspiro[3.3]heptan-2-yl}methanone] | 780 nM | 1700 nM | 140 nM | – | 65.4% | 60% | – | – | – |
| O=C1C[C@@H]2CC[C@H]1[C@@H](C(=O)N1CC3(C1)CN(c1c(C(F)(F)F)cnc4sc(CC(F)(F)F)cc14)C3)N2 [Example 8, (1S,3S,4S)-3-{6-[2-(2,2,2-trifluoroethyl)-5-(trifluoromethyl)thieno[2,3-b]pyridin-4-yl]-2,6-diazaspiro[3.3]heptane-2-carbonyl}-2-azabicyclo[2.2.2]octan-5-one] | 330 nM | 1100 nM | 635 nM | – | 82.9% | 79.3% | – | – | – |
| N#Cc1cnc2sc(CC(F)(F)F)cc2c1N1CC2(CN(C(=O)[C@H]3NC4CCC3CC4)C2)C1 [Example 20, 4-{6-[(3S)-2-azabicyclo[2.2.2]octane-3-carbonyl]-2,6-diazaspiro[3.3]heptan-2-yl}-2-(2,2,2-trifluoroethyl)thieno[2,3-b]pyridine-5-carbonitrile] | 270 nM | 220 nM | 11.4 nM | potent | 41.8% | 59.3% | good | potent | showed the mRNA transcription inhibition activity |
| N#Cc1cnc2sc(CC(F)(F)F)cc2c1N1CC2(CN(C(=O)[C@H]3N[C@@H]4CC[C@H]3C4)C2)C1 [Example 21, 4-{6-[(1R,3S,4S)-2-azabicyclo[2.2.1]heptane-3-carbonyl]-2,6-diazaspiro[3.3]heptan-2-yl}-2-(2,2,2-trifluoroethyl)thieno[2,3-b]pyridine-5-carbonitrile] | 270 nM | 240 nM | 8.4 nM | potent | 40.9% | 52.1% | good | potent | showed the mRNA transcription inhibition activity |
| N#Cc1cnc2sc(CC(F)(F)F)cc2c1N1CC2(CN(C(=O)[C@H]3N[C@H]4CC[C@@H]3C(=O)C4)C2)C1 [Example 25, 4-{6-[(1S,3S,4S)-5-oxo-2-azabicyclo[2.2.2]octane-3-carbonyl]-2,6-diazaspiro[3.3]heptan-2-yl}-2-(2,2,2-trifluoroethyl)thieno[2,3-b]pyridine-5-carbonitrile] | 690 nM | 2200 nM | 90.2 nM | – | – | – | – | – | – |
| O=C([C@H]1NC2CCC1CC2)N1CC2(C1)CN(c1c(C(F)F)cnc3sc(CC(F)(F)F)cc13)C2 [Example 26, [(3S)-2-azabicyclo[2.2.2]octan-3-yl]{6-[5-(difluoromethyl)-2-(2,2,2-trifluoroethyl)thieno[2,3-b]pyridin-4-yl]-2,6-diazaspiro[3.3]heptan-2-yl}methanone] | 290 nM | 680 nM | 44.7 nM | potent | 41.4% | 57.6% | good | – | showed the mRNA transcription inhibition activity |
| O=C([C@H]1N[C@@H]2CC[C@H]1C2)N1CC2(C1)CN(c1c(C(F)F)cnc3sc(CC(F)(F)F)cc13)C2 [Example 27, [(1R,3S,4S)-2-azabicyclo[2.2.1]heptan-3-yl]{6-[5-(difluoromethyl)-2-(2,2,2-trifluoroethyl)thieno[2,3-b]pyridin-4-yl]-2,6-diazaspiro[3.3]heptan-2-yl}methanone] | 560 nM | 940 nM | 26 nM | potent | 48.9% | 53.5% | good | – | showed the mRNA transcription inhibition activity |

Continued, in another order:

| IC50 (RS4; 11 cells) | IC50 (MOLM-13 cells) | IC50 [1] | Menin-MLL binding inhibition activity (in words) [1] | SMILES | mrna remaining at 1 µM [2] | mrna remaining at 1 µM [3] | cell proliferation inhibition activity (in words, good) (RS4; 11 cells) | cell proliferation inhibitory activity (in words, potent) (RS4; 11 cells) | mRNA transcription inhibition activity (in words) [2] |
| --- | --- | --- | --- | --- | --- | --- | --- | --- | --- |
| 580 nM | 830 nM | 27.3 nM | – | O=C([C@H]1N[C@H]2CC[C@@H]1C[C@@H]2O)N1CC2(C1)CN(c1c(C(F)(F)F)cnc3sc(CC(F)(F)F)cc13)C2 [Example 6, [(1S,3S,4R,6S)-6-hydroxy-2-azabicyclo[2.2.2]octan-3-yl]{6-[2-(2,2,2-trifluoroethyl)-5-(trifluoromethyl)thieno[2,3-b]pyridin-4-yl]-2,6-diazaspiro[3.3]heptan-2-yl}methanone] | 51.3% | 54.3% | – | – | – |
| 810 nM | 2100 nM | 343 nM | – | O=C([C@H]1N[C@H]2CC[C@@H]1C[C@H]2F)N1CC2(C1)CN(c1c(C(F)(F)F)cnc3sc(CC(F)(F)F)cc13)C2 [Example 10, [(1S,3S,4R,6R)-6-fluoro-2-azabicyclo[2.2.2]octan-3-yl]{6-[2-(2,2,2-trifluoroethyl)-5-(trifluoromethyl)thieno[2,3-b]pyridin-4-yl]-2,6-diazaspiro[3.3]heptan-2-yl}methanone] | 68.8% | 69.5% | – | – | – |
| 630 nM | 730 nM | 53.9 nM | – | C=CCO[C@H]1C[C@H]2CC[C@@H]1N[C@@H]2C(=O)N1CC2(C1)CN(c1c(C(F)(F)F)cnc3sc(CC(F)(F)F)cc13)C2 [Example 11, {(1S,3S,4R,6S)-6-[(prop-2-en-1-yl)oxy]-2-azabicyclo[2.2.2]octan-3-yl}{6-[2-(2,2,2-trifluoroethyl)-5-(trifluoromethyl)thieno[2,3-b]pyridin-4-yl]-2,6-diazaspiro[3.3]heptan-2-yl}methanone] | 60.7% | 64.5% | – | – | – |
| 620 nM | 810 nM | 134 nM | – | O=C([C@H]1N[C@H]2CC[C@@H]1C[C@@H]2OCc1ccccc1)N1CC2(C1)CN(c1c(C(F)(F)F)cnc3sc(CC(F)(F)F)cc13)C2 [Example 13, [(1S,3S,4R,6S)-6-(benzyloxy)-2-azabicyclo[2.2.2]octan-3-yl]{6-[2-(2,2,2-trifluoroethyl)-5-(trifluoromethyl)thieno[2,3-b]pyridin-4-yl]-2,6-diazaspiro[3.3]heptan-2-yl}methanone] | 57.3% | 63% | – | – | – |
